IC50 data for 24 molecules are collected here from patent US9138436B2, “Inhibitors of Bruton's tyrosine kinase” (PHARMACYCLICS LLC, priority 2011, dated 2015).

The experiment has as its target Btk (Homo sapiens, UniProt Q06187). Put plainly: Btk in vitro inhibitory activity, acellular kinase assay (TR-FRET). The class given is biochemical. The procedure:
Btk kinase activity is determined using a time-resolved fluorescence resonance energy transfer (TR-FRET) methodology. Measurements are performed in a reaction volume of 50 μL using 96-well assay plates. Kinase enzyme, inhibitor, ATP (at the Km for the kinase), and 1 μM peptide substrate (Biotin-AVLESEEELYSSARQ-NH2) are incubated in a reaction buffer composed of 20 mM Tris, 50 mM NaCl, MgCl2 (5-25 mM depending on the kinase), MnCl2 (0-10 mM), 1 mM DTT, 0.1 mM EDTA, 0.01% bovine serum albumin, 0.005% Tween-20, and 10% DMSO at pH 7.4 for one hour. The reaction is quenched by the addition of 1.2 equivalents of EDTA (relative to divalent cation) in 25 μL of 1× Lance buffer (Perkin-Elmer). Streptavidin-APC (Perkin-Elmer) and Eu-labeled p-Tyr100 antibody (Perkin-Elmer) in 1× Lance buffer are added in a 25 μL volume to give final concentrations of 100 nM and 2.5 nM, respectively, and the mixture is allowed to incubate for one hour. The TR-FRET signal is measured on a multimode plate reader with an excitation wavelength (λEx) of 330 nm and detection wavelengths (λEm) of 615 and 665 nm. Activity is determined by the ratio of the fluorescence at 665 nm to that at 615 nm. For each compound, enzyme activity is measured at various concentrations of compound. Negative control reactions are performed in the absence of inhibitor in replicates of six, and two no-enzyme controls were used to determine baseline fluorescence levels. Inhibition constants, Ki(app), are obtained using the program BatchKi (Kuzmic et al. (2000), Anal. Biochem. 286:45-50). IC50s are obtained according to the equation: IC50={Ki(app)/(1+[ATP]/Km^ATP)}+[E]total/2;
For all kinases, [ATP]=Km^ATP, [Btk]total=0.5 nM and [Lck]total=6 nM.

Sequence of Btk (Q06187 whole entry): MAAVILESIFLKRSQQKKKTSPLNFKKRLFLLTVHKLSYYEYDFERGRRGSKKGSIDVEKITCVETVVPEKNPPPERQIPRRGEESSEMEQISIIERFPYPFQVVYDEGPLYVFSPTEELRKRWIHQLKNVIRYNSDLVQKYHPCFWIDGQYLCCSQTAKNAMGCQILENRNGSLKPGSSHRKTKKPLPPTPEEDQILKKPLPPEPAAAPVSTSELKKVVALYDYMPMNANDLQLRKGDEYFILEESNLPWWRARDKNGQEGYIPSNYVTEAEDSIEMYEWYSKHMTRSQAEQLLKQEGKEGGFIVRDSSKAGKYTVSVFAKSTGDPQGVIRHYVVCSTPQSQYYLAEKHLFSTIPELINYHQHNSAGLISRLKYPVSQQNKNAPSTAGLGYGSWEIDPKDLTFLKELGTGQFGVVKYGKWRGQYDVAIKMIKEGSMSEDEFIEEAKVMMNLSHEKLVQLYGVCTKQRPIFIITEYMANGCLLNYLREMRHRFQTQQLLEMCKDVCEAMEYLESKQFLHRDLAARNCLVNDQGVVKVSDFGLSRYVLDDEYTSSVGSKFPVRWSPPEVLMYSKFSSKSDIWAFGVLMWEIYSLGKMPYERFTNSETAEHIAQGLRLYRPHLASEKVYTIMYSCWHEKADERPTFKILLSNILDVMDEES

For the molecule `Nc1ncnc2c1c(-c1ccc(Oc3ccccc3)cc1)nn2[C@@H]1CCN(C(=O)/C=C/CNC2CCOCC2)C1` [Example 1d, (R,E)-1-(3-(4-amino-3-(4-phenoxyphenyl)-1H-pyrazolo[3,4-d]pyrimidin-1-yl)pyrrolidin-1-yl)-4-(tetrahydro-2H-pyran-4-ylamino)but-2-en-1-one], the 50% inhibitory concentration (IC50) was < 100 nM.
For the molecule `Nc1ncnc2c1c(-c1ccc(Oc3ccccc3)cc1)nn2[C@@H]1CCCN(C(=O)/C=C/CNC2CCOCC2)C1` [Example 1f, (R,E)-1-(3-(4-amino-3-(4-phenoxyphenyl)-1H-pyrazolo[3,4-d]pyrimidin-1-yl)piperidin-1-yl)-4-(tetrahydro-2H-pyran-4-ylamino)but-2-en-1-one], the IC50 is < 100 nM.
With `CN(C/C=C/C(=O)N1CC[C@@H](n2nc(-c3ccc(Oc4ccccc4)cc3)c3c(N)ncnc32)C1)C1CCOCC1` [Example 1k, (R,E)-1-(3-(4-amino-3-(4-phenoxyphenyl)-1H-pyrazolo[3,4-d]pyrimidin-1-yl)pyrrolidin-1-yl)-4-(methyl(tetrahydro-2H-pyran-4-yl)amino)but-2-en-1-one], the IC50 is < 100 nM.
In the case of `CN(C/C=C/C(=O)N1CCC[C@@H](n2nc(-c3ccc(Oc4ccccc4)cc3)c3c(N)ncnc32)C1)C1CCOCC1` [Example 1q, (R,E)-1-(3-(4-amino-3-(4-phenoxyphenyl)-1H-pyrazolo[3,4-d]pyrimidin-1-yl)piperidin-1-yl)-4-(methyl(tetrahydro-2H-pyran-4-yl)amino)but-2-en-1-one], the half-inhibitory concentration (IC50) was < 100 nM.
With `CN(C/C=C/C(=O)N1CC[C@@H](n2nc(-c3ccc(Oc4ccccc4)cc3)c3c(N)ncnc32)C1)c1ccccn1` [Example 1r, (R,E)-1-(3-(4-amino-3-(4-phenoxyphenyl)-1H-pyrazolo[3,4-d]pyrimidin-1-yl)pyrrolidin-1-yl)-4-(methyl(pyridin-2-yl)amino)but-2-en-1-one], the IC50 is < 100 nM.
For `Nc1ncnc2c1c(-c1ccc(Oc3ccccc3)cc1)nn2[C@@H]1CCN(C(=O)/C=C/CNc2ccccn2)C1` [Example 1s, (R,E)-1-(3-(4-amino-3-(4-phenoxyphenyl)-1H-pyrazolo[3,4-d]pyrimidin-1-yl)pyrrolidin-1-yl)-4-(pyridin-2-ylamino)but-2-en-1-one], the IC50 is < 100 nM.
With `CN(C/C=C/C(=O)N1CCC[C@@H](n2nc(-c3ccc(Oc4ccccc4)cc3)c3c(N)ncnc32)C1)c1ccccn1` [Example 1t, (R,E)-1-(3-(4-amino-3-(4-phenoxyphenyl)-1H-pyrazolo[3,4-d]pyrimidin-1-yl)piperidin-1-yl)-4-(methyl(pyridin-2-yl)amino)but-2-en-1-one], the IC50 was < 100 nM.
`Nc1ncnc2c1c(-c1ccc(Oc3ccccc3)cc1)nn2[C@@H]1CCCN(C(=O)/C=C/CNc2ccccn2)C1` [Example 1u, (R,E)-1-(3-(4-amino-3-(4-phenoxyphenyl)-1H-pyrazolo[3,4-d]pyrimidin-1-yl)piperidin-1-yl)-4-(pyridin-2-ylamino)but-2-en-1-one]: the IC50 was < 100 nM.
Consider `Nc1ncnc2c1c(-c1ccc(Oc3ccccc3)cc1)nn2[C@@H]1CCN(C(=O)/C=C/CN(C2CC2)C2CC2)C1` [Example 2a, (R,E)-1-(3-(4-amino-3-(4-phenoxyphenyl)-1H-pyrazolo[3,4-d]pyrimidin-1-yl)pyrrolidin-1-yl)-4-(dicyclopropylamino)but-2-en-1-one], for which the IC50 was < 100 nM.
The value for `CN(C/C=C/C(=O)N1CC[C@@H](n2nc(-c3ccc(Oc4ccccc4)cc3)c3c(N)ncnc32)C1)C1CCC1` [Example 2aa, (R,E)-1-(3-(4-amino-3-(4-phenoxyphenyl)-1H-pyrazolo[3,4-d]pyrimidin-1-yl)pyrrolidin-1-yl)-4-(cyclobutyl(methyl)amino)but-2-en-1-one] was < 100 nM; that for `Nc1ncnc2c1c(-c1ccc(Oc3ccccc3)cc1)nn2[C@@H]1CCN(C(=O)/C=C/CNC2CCC2)C1` [Example 2ab, (R,E)-1-(3-(4-amino-3-(4-phenoxyphenyl)-1H-pyrazolo[3,4-d]pyrimidin-1-yl)pyrrolidin-1-yl)-4-(cyclobutylamino)but-2-en-1-one] was < 100 nM.
The value for `CN1CCC(N(C)C/C=C/C(=O)N2CC[C@@H](n3nc(-c4ccc(Oc5ccccc5)cc4)c4c(N)ncnc43)C2)CC1` [Example 2ac, (R,E)-1-(3-(4-amino-3-(4-phenoxyphenyl)-1H-pyrazolo[3,4-d]pyrimidin-1-yl)pyrrolidin-1-yl)-4-(methyl(1-methylpiperidin-4-yl)amino)but-2-en-1-one] was < 100 nM; that for `CN1CCC(NC/C=C/C(=O)N2CC[C@@H](n3nc(-c4ccc(Oc5ccccc5)cc4)c4c(N)ncnc43)C2)CC1` [Example 2ad, (R,E)-1-(3-(4-amino-3-(4-phenoxyphenyl)-1H-pyrazolo[3,4-d]pyrimidin-1-yl)pyrrolidin-1-yl)-4-(1-methylpiperidin-4-ylamino)but-2-en-1-one] was < 100 nM; that for `CN(C/C=C/C(=O)N1CCC[C@@H](n2nc(-c3ccc(Oc4ccccc4)cc3)c3c(N)ncnc32)C1)C1CC1` [Example 2ae, (R,E)-1-(3-(4-amino-3-(4-phenoxyphenyl)-1H-pyrazolo[3,4-d]pyrimidin-1-yl)piperidin-1-yl)-4-(cyclopropyl(methyl)amino)but-2-en-1-one] was < 100 nM.
Consider `Nc1ncnc2c1c(-c1ccc(Oc3ccccc3)cc1)nn2[C@@H]1CCCN(C(=O)/C=C/CNC2CC2)C1` [Example 2af, (R,E)-1-(3-(4-amino-3-(4-phenoxyphenyl)-1H-pyrazolo[3,4-d]pyrimidin-1-yl)piperidin-1-yl)-4-(cyclopropylamino)but-2-en-1-one], for which the IC50 was < 100 nM.
In the case of `CN(C/C=C/C(=O)N1CCC[C@@H](n2nc(-c3ccc(Oc4ccccc4)cc3)c3c(N)ncnc32)C1)C1CCCCC1` [Example 2ag, (R,E)-1-(3-(4-amino-3-(4-phenoxyphenyl)-1H-pyrazolo[3,4-d]pyrimidin-1-yl)piperidin-1-yl)-4-(cyclohexyl(methyl)amino)but-2-en-1-one], the IC50 is < 100 nM.
Regarding `Nc1ncnc2c1c(-c1ccc(Oc3ccccc3)cc1)nn2[C@@H]1CCCN(C(=O)/C=C/CNC2CCCCC2)C1` [Example 2ah, (R,E)-1-(3-(4-amino-3-(4-phenoxyphenyl)-1H-pyrazolo[3,4-d]pyrimidin-1-yl)piperidin-1-yl)-4-(cyclohexylamino)but-2-en-1-one], the IC50 is < 100 nM.
The value for `CN(C/C=C/C(=O)N1CCC[C@@H](n2nc(-c3ccc(Oc4ccccc4)cc3)c3c(N)ncnc32)C1)C1CCCC1` [Example 2ai, (R,E)-1-(3-(4-amino-3-(4-phenoxyphenyl)-1H-pyrazolo[3,4-d]pyrimidin-1-yl)piperidin-1-yl)-4-(cyclopentyl(methyl)amino)but-2-en-1-one] was < 100 nM.
With `Nc1ncnc2c1c(-c1ccc(Oc3ccccc3)cc1)nn2[C@@H]1CCCN(C(=O)/C=C/CNC2CCCC2)C1` [Example 2aj, (R,E)-1-(3-(4-amino-3-(4-phenoxyphenyl)-1H-pyrazolo[3,4-d]pyrimidin-1-yl)piperidin-1-yl)-4-(cyclopentylamino)but-2-en-1-one] the figure was < 100 nM; with `CN(C/C=C/C(=O)N1CCC[C@@H](n2nc(-c3ccc(Oc4ccccc4)cc3)c3c(N)ncnc32)C1)C1CCC1` [Example 2ak, (R,E)-1-(3-(4-amino-3-(4-phenoxyphenyl)-1H-pyrazolo[3,4-d]pyrimidin-1-yl)piperidin-1-yl)-4-(cyclobutyl(methyl)amino)but-2-en-1-one], < 100 nM; with `Nc1ncnc2c1c(-c1ccc(Oc3ccccc3)cc1)nn2[C@@H]1CCCN(C(=O)/C=C/CNC2CCC2)C1` [Example 2am, (R,E)-1-(3-(4-amino-3-(4-phenoxyphenyl)-1H-pyrazolo[3,4-d]pyrimidin-1-yl)piperidin-1-yl)-4-(cyclobutylamino)but-2-en-1-one], < 100 nM.
Turning to `CN1CCC(N(C)C/C=C/C(=O)N2CCC[C@@H](n3nc(-c4ccc(Oc5ccccc5)cc4)c4c(N)ncnc43)C2)CC1` [Example 2an, (R,E)-1-(3-(4-amino-3-(4-phenoxyphenyl)-1H-pyrazolo[3,4-d]pyrimidin-1-yl)piperidin-1-yl)-4-(methyl(1-methylpiperidin-4-yl)amino)but-2-en-1-one], the IC50 is < 100 nM.
With `CN1CCC(NC/C=C/C(=O)N2CCC[C@@H](n3nc(-c4ccc(Oc5ccccc5)cc4)c4c(N)ncnc43)C2)CC1` [Example 2ao, (R,E)-1-(3-(4-amino-3-(4-phenoxyphenyl)-1H-pyrazolo[3,4-d]pyrimidin-1-yl)piperidin-1-yl)-4-(1-methylpiperidin-4-ylamino)but-2-en-1-one] the figure was < 100 nM.
With `CCN(C/C=C/C(=O)N1CC[C@@H](n2nc(-c3ccc(Oc4ccccc4)cc3)c3c(N)ncnc32)C1)C1CCC1` [Example 2ap, (R,E)-1-(3-(4-amino-3-(4-phenoxyphenyl)-1H-pyrazolo[3,4-d]pyrimidin-1-yl)pyrrolidin-1-yl)-4-(cyclobutyl(ethyl)amino)but-2-en-1-one] the figure was < 100 nM.

The IC50 is the concentration at which inhibition is half-maximal. A high value points to weaker potency in that assay.
